Measurements as given in ChEMBL document CHEMBL1150232, “Microspinosamide, a new HIV-inhibitory cyclic depsipeptide from the marine sponge Sidonops microspinosa” (J Nat Prod, 2001).
≈ marks a conversion by molar mass, not a printed value.

Columns and labels:
CEM-SS = assay: Cytotoxicity against human CEM-SS cells; type: cell-based
[1] = test system: Human immunodeficiency virus 1; assay: Antiviral activity against HIV1 infected in human CEM-SS cells assessed as inhibition of virus-induced cytopathic effect by XTT assay; type: functional, organism-based; details: Human immunodeficiency virus 1, CEM-SS

CCC(C)(C)[C@H](NC(=O)[C@H](NC(=O)[C@@H]1CCCN1C(=O)C(NC(=O)[C@@H](C)NC=O)C(O)c1ccc(Br)cc1)C(C)(C)C)C(=O)N[C@H](Cc1c[nH]c2ccccc12)C(=O)N[C@@H](CCCNC(=N)N)C(=O)N[C@H](CS(=O)(=O)O)C(=O)N[C@@H]1C(=O)N(C)[C@@H](CCC(N)=O)C(=O)N[C@H](C(C)C)C(=O)N2CCC[C@H]2C(=O)N[C@H](CC(=O)O)C(=O)O[C@@H]1C (some centres not stated) [MICROSPINOSAMIDE]
IC50 (CEM-SS): 3 µg/mL (≈ 1.74 µM)
EC50 [1]: 0.2 µg/mL (≈ 0.116 µM)
